Assay results reported in patent US10369145B2, “Coumarin derivatives and methods of use in treating hyperproliferative diseases” (DISCOVERYBIOMED, INC., priority 2013, dated 2019).

Tests used:
Format in all cases: cell-based
NCI-H460 = test: NCI 60 panel: NCI-H460 (Non-Small Cell Lung Cancer)
Source text: (§5) TGI means the drug concentration resulting in total growth inhibition or “cytostasis.” LC50 is the concentration of drug resulting in a 50% reduction in the measured cytosolic ATP at the end of the drug treatment as compared to that at the beginning, indicating a net loss of cells following treatment (cytotoxicity).

HT29 = test: NCI 60 panel: HT29 (Colon Cancer)
Source text: as §5

KM12 = test: NCI 60 panel: KM12 (Colon Cancer)
Source text: as §5

SNB-19 = test: NCI 60 panel: SNB-19 (CNS Cancer)
Source text: as §5

SNB-75 = test: NCI 60 panel: SNB-75 (CNS Cancer)
Source text: as §5

MDA-MB-435 = test: NCI 60 panel: MDA-MB-435 (Melanoma)
Source text: as §5

OVCAR-4 = test: NCI 60 panel: OVCAR-4 (Ovarian Cancer)
Source text: as §5

OVCAR-8 = test: NCI 60 panel: OVCAR-8 (Ovarian Cancer)
Source text: as §5

UO-31 = test: NCI 60 panel: UO-31 (Renal Cancer)
Source text: as §5

DU-145 = test: NCI 60 panel: DU-145 (Prostate Cancer)
Source text: as §5

MDA-MB-231 = test: NCI 60 panel: MDA-MB-231 (Breast Cancer)
Source text: as §5

BT-549 = test: NCI 60 panel: BT-549 (Breast Cancer)
Source text: as §5

T-47D = test: NCI 60 panel: T-47D (Breast Cancer)
Source text: as §5

MDA-MB-468 = test: NCI 60 panel: MDA-MB-468 (Breast Cancer)
Source text: as §5

U251MG = test: Complementary DBM in vitro profiling: U251MG (CNS Cancer)
Experimental: (§1) The compounds described herein are effective for inhibiting cellular proliferation in hyperproliferative cell types. To study the effects of these compounds, an assay was developed to differentiate the effects of the compounds on proliferating versus confluent cells. The assay design generates a proliferating density 24 hours after seeding and provides a 3-day active cell growth/doubling window in which to gauge the anti-proliferative effect of the compounds described herein. […] In this 3-day growth window, cell number increases with daily doublings across the 72-hour period (see FIG. 1).
(§2) In each assay design, compounds were added at the 24-hour timepoint after cell seeding. The effect of the compounds, relative to vehicle control and to VelCade (a proteasome inhibitor approved in the U.S. for treating relapsed multiple myeloma and mantle cell lymphoma) as a positive control, was assessed across the 3-day growth window for proliferating cells and on an already near confluent culture of cells for the same time period. Normal cells were handled in the same manner, with some adjustment of seeding density needed in select cases. […]
(§3) Cell number at the end of the assay was determined using the CELLTITER-GLO Luminescent Cell Viability Assay (Promega; Madison, Wis.). The CELLTITER-GLO Luminescent Cell Viability Assay is a homogeneous method of determining the number of viable cells in culture based on quantitation of the ATP present, an indicator of metabolically active cells. IC50 values were calculated. […]
(§4) For a typical screening experiment to identify the compounds, cells were seeded into 96- or 384-well microtiter plates at plating densities pre-determined for each cell line to ensure drug exposure occurs during the proliferative phase well before confluency is reached. […] Values were calculated for each of these three parameters if the level of activity was reached; however, if the effect was not reached or was exceeded, the value for that parameter was expressed as greater or less than the maximum or minimum concentration tested.

U118MG = test: Complementary DBM in vitro profiling: U118MG (CNS Cancer)
Experimental: as §1, §2, §3, §4

ARH-77 = test: Complementary DBM in vitro profiling: ARH-77 (Hematologic Cancer)
Experimental: as §1, §2, §3, §4

FaDu = test: Complementary DBM in vitro profiling: FaDu (Hypopharyngeal Cancer)
Experimental: as §1, §2, §3, §4

[1] = read-out: LC50 (the source's name)

COc1ccccc1Nc1nc(-c2cc3cccc(N)c3oc2=O)cs1 [Compound DBM 228] showed a GI50 (NCI-H460) of 91.2 nM, a TGI (NCI-H460) of 14200 nM and a CC50 (NCI-H460; [1]) greater than 100000 nM. It also gave a GI50 (HT29) of 308 nM, a TGI (HT29) of 1600 nM and a CC50 (HT29; [1]) of 24700 nM. The GI50 (KM12) was 70.5 nM, the TGI (KM12) was 13400 nM and the CC50 (KM12; [1]) was greater than 100000 nM. The GI50 (SNB-19) was 182 nM, the TGI (SNB-19) was 35000 nM and the CC50 (SNB-19; [1]) was greater than 100000 nM. The GI50 (SNB-75) was 48.1 nM, the CC50 (SNB-75; [1]) was greater than 100000 nM and the GI50 (MDA-MB-435) was 23.1 nM. For the same compound, the TGI (MDA-MB-435) was 67.9 nM, the CC50 (MDA-MB-435; [1]) was 69500 nM and the GI50 (OVCAR-4) was 1350 nM. The TGI (OVCAR-4) was 25000 nM, the CC50 (OVCAR-4; [1]) was greater than 100000 nM and the GI50 (OVCAR-8) was 310 nM. It also gave a TGI (OVCAR-8) of 13200 nM, a CC50 (OVCAR-8; [1]) greater than 100000 nM and a GI50 (UO-31) of 1460 nM. For the same compound, the TGI (UO-31) was 43000 nM, the CC50 (UO-31; [1]) was greater than 100000 nM and the GI50 (DU-145) was 356 nM. It also gave a TGI (DU-145) of 5310 nM, a CC50 (DU-145; [1]) of 41000 nM and a GI50 (MDA-MB-231) of 1370 nM. It also gave a TGI (MDA-MB-231) of 12000 nM, a CC50 (MDA-MB-231; [1]) greater than 100000 nM and a GI50 (BT-549) of 239 nM. It also gave a TGI (BT-549) of 12300 nM, a CC50 (BT-549; [1]) greater than 100000 nM and a TGI (T-47D) of 55900 nM. The CC50 (T-47D; [1]) was greater than 100000 nM, the GI50 (MDA-MB-468) was 47.1 nM and the TGI (MDA-MB-468) was 800 nM. It also gave a CC50 (MDA-MB-468; [1]) of 60900 nM, a GI50 (U251MG) of 197 nM and a TGI (U251MG) greater than 30000 nM. For the same compound, the CC50 (U251MG; [1]) was greater than 30000 nM, the GI50 (U118MG) was 2710 nM and the TGI (U118MG) was 7850 nM. For the same compound, the CC50 (U118MG; [1]) was greater than 30000 nM, the GI50 (ARH-77) was 154 nM and the TGI (ARH-77) was 339 nM. For the same compound, the CC50 (ARH-77; [1]) was greater than 30000 nM, the GI50 (FaDu) was 1400 nM and the TGI (FaDu) was 8740 nM. For the same compound, the CC50 (FaDu; [1]) was 27500 nM.
